# Test results taken from patent US20240423972A1, “CHEMOTHERAPEUTIC BIOADHESIVE PARTICLES WITH IMMUNOSTIMULATORY MOLECULES FOR CANCER TREATMENT” (priority 2021, published 2024).
# Legend:
# [1] = test system: PDVC57 cells; assay: Control cytotoxicity assay: solutions not aspirated before addition of cells; format: cell-based, murine
# Method: After 48 hours, cell viability was assessed using Cell-Titer Glo. (8D) PDVC7 cells were harvested and seeded on a 96-well plate (5000 cells/well). […] FIG. 8B is a control for assay (8A) in which there is no poly-l-lysine attached to the plate.
# A simulated, protein-rich tumor matrix was created by coating a 96 wellplate with 0.01% poly-l-lysine in 1×PBS. […] […] After 48 hours, cell viability was assessed using Cell-Titer Glo. PDVC7 cells were harvested and seeded on a 96-well plate (5000 cells/well). […] After 48 hours, cell viability was assessed using Cell-Titer Glo. A control for assay in which the poly-l-lysine coated plates are incubated with blank (unloaded) NP, free CPT, NNP-CPT or BNP-CPT, but these solutions are not aspirated before the addition of PDVC57 cells.
# [2] = test system: PDVC57 tumors; assay: Intratumoral CPT retention (CPT recovered from tumors); format: in vivo, C57BL/6J mice; details: 240 h (10 days) after intratumoral injection, 0.25 mg CPT
# Method: (§1) All animal procedures were conducted in accordance with Yale Institutional Animal Care and Use Committee guidelines. Mice were housed in the Yale Animal Resource Center and afforded free access to food and water. Wild-type C57BL/6J mice were obtained from The Jackson Laboratory. To prepare the animals for tumor transplantation, the dorsal right flank was shaved using electric clippers. PDVC57 cells were harvested, washed, and resuspended in 1×PBS on ice at a concentration of 5.0×10^7 cells per mL. Mice were then anesthetized in an induction chamber with […] in propylene glycol and the dorsal right flank injected intradermally/subcutaneously with 5.0×10^6 cells in 100 μl using a 27-gauge syringe, forming a small bleb at the site of injection.
# When tumors reached a diameter of about 5 mm, they were treated with either free CPT (0.25 mg of CPT/50 μL of intralipid), NNP-CPT (0.25 mg of CPT/50 μL of PBS), or BNP-CPT (0.25 mg of CPT/50 μL of PBS). Following injection, tumors were harvested and lyophilized at 0, 48, and 240 h. […] The homogenate was centrifuged at 10,000×g for 5 min to pellet residual tumor and debris, the supernatant removed, and CPT quantified using its intrinsic fluorescence as described above.
# [3] = test system: PDVC57 tumors; assay: In vivo assessment of CPT NP efficacy; details: single dose of 0.25 mg of CPT by intratumoral injection
# Method: as §1
# PDVC57 tumors were induced as described above. When tumors attained a diameter of approximately 5 mm, they were injected with either blank BNPs (1.99 mg/50 μL of PBS), IL-CPT (0.25 mg of CPT/50 μL), NNP-CPT (0.25 mg of CPT/50 μL of PBS), or BNP-CPT (0.25 mg of CPT/50 μL of PBS) using a 27-gauge needle, which was positioned in the center of the tumor. The entire treatment volume was administered intratumorally over 15 s. The needle was then held in this position for 10 s and withdrawn slowly in order to prevent leakage of drug from the injection site.
compound,measurement,setting,value
"CC[C@@]1(O)C(=O)OCc2c1cc1n(c2=O)Cc2cc3ccccc3nc2-1 [free CPT, Camptothecin]",Killing of PDVC57 (viability),[1],comparable killing
same,percentage of the injected CPT recovered from tumors,[2],undetectable
same,Systemic toxicity in pilot studies,[3],without clinical evidence of systemic toxicity
